From patent EP1438962A1, “DRUGS COMPRISING COMBINATION OF TRIAZASPIRO 5,5 U NDECANE DERIVATIVE WITH CYTOCHROME P450 ISOZYME 3A4 INHIBITOR AND/OR P−GLYCOPROTEIN INHIBITOR” (ONO PHARMACEUTICAL CO., LTD., priority 2001, dated 2003) come the findings set out here.

Broadly, the AUC is the area under the concentration-time curve, a measure of exposure.

Where two headings read alike, the source gives them in different places.

For series [1], the system named is CYP 3A4. Nature of the series: Metabolic reaction in pooled human liver microsome with or without the CYP 3A4 inhibitor ketoconazole. The following applies: 1 µmol/L test compound, 37°C, after 60 minutes; for Residual rate (%) Ketoconazole (+): ketoconazole 1 µmol/L; for Residual rate (%) Ketoconazole (-): without ketoconazole. It counts as in vitro ADME. From the text: Metabolic reaction of a test compound in pooled human liver microsome (Zenotec) in the presence of a specific inhibitor for each CYP molecular species was investigated and the CYP molecular species participating in the metabolism was estimated from the effect of each inhibitor.
The following inhibitors were used as the specific inhibitors for CYP molecular species:
A mixed solution containing 100 mmol/L of a phosphate buffer (pH 7.4), 0.05 mmol/L disodium ethylenediaminetetraacetate, 5 mmol /L magnesium chloride, 1 µmol/L of a test compound, 0.2 mg/L of human liver microsome (8 mg/L only for the measurement of a metabolism inhibiting rate by CYP 2C19) and each inhibitor (each of the numerals being the final concentration) was pre-incubated at 37°C, and then 2 mmol/L NADPH was added thereto to start the reaction. Immediately thereafter and after 60 minutes, 100 µL. of the sample was collected. The collected sample was immediately added to 2 mL of diethyl ether containing 400 µL of distilled water and 0.1 µg/L of an internal standard substance, followed by stirring, and the reaction was stopped. After a centrifugal treatment (2,000 rpm for 3 minutes), diethyl ether which was an upper layer was collected and dried in vacuo. The residue was dissolved in 150 µL of 0.01% TFA-80% acetonitrile and 40 µL thereof was subjected to a measurement. In this test, no quantitative determination was conducted but the residual rate to the concentration of the compound immediately after starting the reaction was determined from the area ratio in liquid chromatography/tandem mass analysis (LC/MS/MS) chromatogram.
For orientation: Liver microsomes are vesicles of endoplasmic reticulum, rich in cytochrome P450 enzymes.

Series [2] in a line: Plasma concentration after intravenous administration in rat in the presence of CYP 3A4 inhibitor. Format: in vivo. The settings on record: male SD rats, test compound 3 mg/kg intravenously; for AUC increase in the presence of ketoconazole versus absence: ketoconazole 50 mg/kg intraperitoneally; for AUC at 4 h: rat, in vivo, iv, 3 mg/kg. How it is done:
Ketoconazole (50 mg/kg), an inhibitor against CYP 3A4, was intraperitoneally administered to male SD rats. One hour thereafter, the test compound (3 mg/kg) was intravenously administered. After 2, 5, 15, 30, 60, 120 and 240 minutes from the administration of the test compound, blood was collected from the rat jugular vein and centrifuged at 3,000 rpm for 10 minutes to obtain plasma. To 150 µL of the resulting plasma were added 5 ng of 2-[4-[4-(2-methoxyphenyl)-1-piperazinyl]butylamino]-5-ethoxycarbonyl-4,6-dimethylpyrimidine trihydrochloride as an internal standard, proteins were removed therefrom using ethanol and a plasma concentration of the test compound was measured by high-performance liquid chromatography. From the resulting plasma concentration of the test compound, the area under the curve of plasma concentration vs. time (AUC, µg·min/mL) was calculated.

The test system of series [3] is parent cells thereof (LLC-PK 1). Nature of the series: Membrane permeability of parent cells. It counts as in vitro ADME. The settings on record: PK 1 cells, CsA (-), compound 10 µM. Here is the method:
(§1) Human MDR1 expressed cells (LLC-GA-5-COL 150) and parent cells thereof (LLC-PK 1) were incubated until arriving confluent in a 12-well transwell plate to prepare a single-layer membrane. Compound 75(54) was adjusted to 10 µM using a buffer for the measurement (M 199, 26.2 mM NaHCO3, 10% FBS, 0.03% L-glutamine; pH 7.4). In measuring the membrane permeability from lumen to blood vessel, the drug solution was loaded to the lumen while, in measuring the membrane permeability from blood vessel to lumen, it was loaded to the blood vessel and incubation was carried out under conditions at 37°C, 5% CO2 and relative humidity of 90%. After a certain period, the sample solution was collected and, in order to keep each volume, a buffer for the measurement was supplemented to an extent of the collected volume. Similarly, membrane permeability of Compound 75(54) was observed as well in the presence of cyclosporine A (abbreviated as CsA; final concentration: 10 µM) which is an inhibitor for P-gp. The measurement was carried out 3 times. All samples were evaluated by means of LS/MS/MS.

Series [4] in a line: Plasma concentration upon oral administration to rats in the presence of CYP 3A4 inhibitor. The settings on record: male SD rats, test compound 30 mg/kg orally, ketoconazole 50 mg/kg intraperitoneally one hour before. Format: in vivo. Here is the method: Ketoconazole (50 mg/kg), a CYP 3A4 inhibitor, was intraperitoneally administered to male SD rats. One hour thereafter, 30 mg/kg of the test compound was orally administered. After 15, 30, 60, 120, 240 and 360 minutes from administration of the test compound, blood was collected from the rat jugular vein and centrifuged at 3,000 rpm for 10 minutes to give plasma. To 150 µL of the resulting plasma were added 5 ng of 2-[4-[4-(2-methoxyphenyl)-1-piperazinyl]butyl-amino]-5-ethoxycarbonyl-4,6-dimethylpyrimidine trihydrochloride, proteins were removed therefrom using ethanol and plasma concentration of the test compound was measured by high-performance liquid chromatography. From the concentration of the test compound in the resulting plasma, the area under curve of plasma concentration vs. time (AUC, µg•min/mL) was calculated.

In series [5] the test system is Human MDR1 expressed cells (LLC-GA-5-COL 150). The experiment in a line: Membrane permeability of P-gp expression cells. It counts as in vitro ADME. The settings on record: COL 150 cells, CsA (-), compound 10 µM. How it is done:
as §1

In series [6] the test system is Caco-2 cells. The experiment in a line: Permeability of Caco-2 in the presence of P-gp inhibitor. Format: in vitro ADME. The following applies: drug 10 µM. Here is the method: Caco-2 cells were incubated in a 12-well transwell place on a collagen-coated porous polycarbonate membrane until arriving confluent to prepare a single-layer membrane of Caco-2 cells. The single-layer membrane was preincubated for 30 minutes in a buffer for the measurement (a Hanks buffer containing 10 mM HEPES and 15 mM glucose; pH 7.0 ± 0.2) to which d-α-tocopheryl polyethylene glycol 1000 succinate, a P-gp inhibitor, was added. The drug concentration was adjusted to 10 µM by a buffer for the measurement. In measuring the membrane permeability from lumen to blood vessel, the drug solution was loaded to the lumen while, in measuring the membrane permeability from blood vessel to lumen, it was loaded to the blood vessel and incubation was carried out under conditions at 37°C, 5% CO2 and relative humidity of 90%. After 1 and 2 hours from the administration of the drug, 200 µL of the buffer for the measurement containing the drug solution were recovered and substituted with a new buffer for the measurement. The measurement was carried out 2 times. Membrane permeability in a cell-free state was measured and used as a blank. As a control, permeability of Lucifer Yellow was measured. All samples were evaluated by LC/MS. A permeation coefficient (Papp) was calculated according to the following equation. Papp = (dc / dt) • Vr / (A • C0 ) [formula]
In the equation, dc/dt is a permeation rate after lag time; Vr is a volume of the solution at the side of a donor; A is a surface area; and C0 is the initial concentration of the solution at the side of the donor.
(Passage across Caco-2 layers is used to estimate intestinal permeability.)

Series [7] in a line: Plasma concentration upon oral administration to rats in the presence of an HIV protease inhibitor. It counts as in vivo. The following applies: male SD rats. How it is done:
Amprenavir, nelfinavir, ritonavir or saquinavir (10 mg/kg) which is an HIV protease inhibitor and 10 mg/kg of the test compound were orally administered to male SD rats at the same time. After 15, 30, 60, 120, 240 and 360 minutes from the administration of the test compound, blood was collected from the rat jugular vein and centrifuged at 3,000 rpm for 10 minutes to give plasma. To 200 µL of the resulting plasma were added 50 ng of (3S)-1-butyl-2,5-dioxo-3-(2-methylpropyl)-9-)4-phenyloxyphenylmethyl)-1,4,9-triazaspiro[5.5]undecane as an internal standard. To this were added 300 µL of distilled water and 2,000 µL of diethyl ether, followed by well stirring, and the diethyl ether layer recovered therefrom was dried in vacuo. The dried substance was dissolved in 150 µL of a 50% acetonitrile solution containing 0.005% trifluoroacetic acid and subjected to a liquid chromatography/tandem mass analysis (LC/MS/MS) method to measure a plasma concentration of the test compound. From the concentration of the test compound in the resulting plasma, the area under curve of plasma concentration vs. time (AUC, µg·min/mL) was calculated.

Consider `CCCCN1C(=O)C(CC(C)C)NC(=O)C12CCN(Cc1c(C)nn(-c3ccccc3)c1C)CC2` (stereo not shown) [Compound 3(1)], for which, in series [1], the “Residual rate (%) Ketoconazole (+)” value turned out to be 89.1% and the “Residual rate (%) Ketoconazole (-)” value was determined as 32.1%. Further, the “AUC increase in the presence of ketoconazole versus absence” value in series [2] is “about 4 times”. The AUC at 4 h in series [2] (ketoconazole 50 mg/kg intraperitoneally one hour before, read-out: AUC in the presence of ketoconazole (converted)) is 4350 ng·h/mL. Further, the AUC at 4 h in series [2] (no ketoconazole, read-out: AUC in the absence of ketoconazole (converted)) was 1020 ng·h/mL.
As to `CCCCN1C(=O)[C@H](CC2CCCCC2)NC(=O)C12CCN(Cc1ccc(Oc3ccc(C(=O)O)cc3)cc1)CC2` [Compound 40(70), (3S)-1-butyl-2,5-dioxo-3-cyclohexylmethyl-9-(4-(4-carboxyphenyloxy)phenylmethyl)-1,4,9-triazaspiro[5.5]undecane], in series [1], the “Residual rate (%) Ketoconazole (+)” value is 104.0% and the “Residual rate (%) Ketoconazole (-)” value worked out at 28.2%.
For `CCCCN1C(=O)[C@@H]([C@H](O)C2CCCCC2)NC(=O)C12CCN(Cc1c(C)nn(-c3ccc(C(=O)NC)cc3)c1C)CC2` [Compound 75(53), (3R)-1-butyl-2,5-dioxo-3-((1R)-1-hydroxy-1-cyctohexylmethyl)-9-(3,5-dimethyl-1-(4-methylaminocarbonylphenyl)pyrazol-4-ylmethyl)-1,4,9-triazaspiro[5.5]undecane], in series [1], the “Residual rate (%) Ketoconazole (+)” value was 114.4% and the “Residual rate (%) Ketoconazole (-)” value is listed as 19.4%.
Take `CCCCN1C(=O)[C@@H]([C@H](O)C2CCCCC2)NC(=O)C12CCN(Cc1ccc(Oc3ccc(C(=O)O)cc3)cc1)CC2` [Compound 75(54), (3R)-1-butyl-2,5-dioxo-3-((1R)-1-hydroxy-1-cyclohexylmethyl)-9-(4-(4-carboxyphenyloxy)phenylmethyl)-1,4,9-triazaspiro[5.5]undecane]: in series [3], the “Permeability From blood vessel to lumen” value is 18.8 µL/cm^2/hr and the “Permeability From lumen to blood vessel” value is 35.3 µL/cm^2/hr. In series [1], the “Residual rate (%) Ketoconazole (+)” value is recorded as 95.3% and the “Residual rate (%) Ketoconazole (-)” value is listed as 34.4%. The “AUC increase in the presence of ketoconazole versus absence” value in series [4] is recorded as 10 times. Moreover, in series [5], the “Permeability From blood vessel to lumen” value was 34.3 µL/cm^2/hr and the “Permeability From lumen to blood vessel” value came to 2.06 µL/cm^2/hr. In series [2], the “AUC increase in the presence of ketoconazole versus absence” value is on record as “about 3 times”. Further, in series [6] (Caco-2, 0.025% TPGS (+)), the “Permeation Coefficient From blood vessel to lumen” value is given as 13 cm/s and the “Permeation Coefficient From lumen to blood vessel” value was found to be 10.5 cm/s. In series [6] (Caco-2, 0.025% TPGS (-)), the “Permeation Coefficient From blood vessel to lumen” value amounted to 32.4 cm/s and the “Permeation Coefficient From lumen to blood vessel” value stood at 3.42 cm/s. For the same compound, in series [7] (test compound 10 mg/kg and amprenavir 10 mg/kg orally at the same time), the “AUC increase in the presence of amprenavir versus absence” value was 3.7 times. The “AUC increase in the presence of nelfinavir versus absence” value in series [7] (test compound 10 mg/kg and nelfinavir 10 mg/kg orally at the same time) turned out to be 3.4 times. Also, the “AUC increase in the presence of ritonavir versus absence” value in series [7] (test compound 10 mg/kg and ritonavir 10 mg/kg orally at the same time) amounted to 7.7 times. Moreover, the “AUC increase in the presence of saquinavir versus absence” value in series [7] (test compound 10 mg/kg and saquinavir 10 mg/kg orally at the same time) was found to be 1.7 times.
